# Experimental data: patent US20250171437A1 (Agios Pharmaceuticals,Inc., priority 2022, published 2025)
# Molecular target: T1, human PAH with the R408W mutation (A375 R408W cells) (Homo sapiens, UniProt P00439, R408W)
# T1 construct: expressed in transfected cells
# T1 sequence (P00439 1-452 R408W): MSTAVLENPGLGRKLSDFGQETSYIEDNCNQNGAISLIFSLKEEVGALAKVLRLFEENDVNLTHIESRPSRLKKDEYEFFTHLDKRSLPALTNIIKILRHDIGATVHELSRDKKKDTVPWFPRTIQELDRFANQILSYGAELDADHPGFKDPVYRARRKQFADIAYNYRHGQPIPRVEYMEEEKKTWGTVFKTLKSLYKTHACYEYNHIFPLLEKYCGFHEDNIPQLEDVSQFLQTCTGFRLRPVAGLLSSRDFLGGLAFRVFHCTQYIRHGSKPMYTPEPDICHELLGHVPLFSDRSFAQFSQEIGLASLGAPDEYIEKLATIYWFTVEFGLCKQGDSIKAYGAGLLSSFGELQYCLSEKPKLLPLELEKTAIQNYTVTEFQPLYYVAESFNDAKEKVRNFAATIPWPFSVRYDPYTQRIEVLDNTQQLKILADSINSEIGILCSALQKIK
# Assay: Cell Based Phenylalanine Flux Assay
# Details: 24 hrs with compound, then 20 μM sepiapterin and 800 μM 13C9,15N-Phenylalanine for 4 hours, 13C-Tyrosine by LC-MS, average where tested multiple times
# Outline: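 LC-MS quantitation of 13C-tyrosine in media gave AC50 values. Stable A375 R408W PAH cells were preincubated 24 h with compound, then fed 800 μM labelled Phe plus 20 μM sepiapterin for 4 h. Dose curves were 10-point, tested in duplicate, averaged over repeat runs.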
# [1] = A375 cells expressing R408W PAH
SMILES,AC50 (A375 R408W cells) [µM],AC50 [1] [µM]
"COc1cccc2oc([C@@H]3c4nc[nH]c4CCN3C(=O)c3nc(C(F)F)nn3C)nc12 [Example 601, (S)-(3-(difluoromethyl)-1-methyl-1H-1,2,4-triazol-5-yl)(4-(4-methoxybenzo[d]oxazol-2-yl)-6,7-dihydro-1H-imidazo[4,5-c]pyridin-5(4H)-yl)methanone]",0.5 to 1,–
"CC(C)(O)c1nc(C(F)F)c(C(=O)N2CCc3[nH]cnc3[C@H]2c2nc3ccccc3o2)o1 [Example 470, (S)-(4-(benzo[d]oxazol-2-yl)-6,7-dihydro-1H-imidazo[4,5-c]pyridin-5(4H)-yl)(4-(difluoromethyl)-2-(2-hydroxypropan-2-yl)oxazol-5-yl)methanone]",≤ 0.5,–
"Cc1ccc2nc([C@H]3c4nc[nH]c4CCN3C(=O)c3nnc(-c4cnn(C(F)F)c4)o3)oc2c1 [Example 682, (R)-(5-(1-(difluoromethyl)-1H-pyrazol-4-yl)-1,3,4-oxadiazol-2-yl)(4-(6-methylbenzo[d]oxazol-2-yl)-6,7-dihydro-1H-imidazo[4,5-c]pyridin-5(4H)-yl)methanone]",≥ 5,–
"O=C(c1ocnc1C(F)F)N1CCc2[nH]cnc2[C@H]1c1nc2c(OC(F)(F)F)cccc2o1 [Example 536, (S)-(4-(difluoromethyl)oxazol-5-yl)(4-(4-(trifluoromethoxy)benzo[d]oxazol-2-yl)-6,7-dihydro-1H-imidazo[4,5-c]pyridin-5(4H)-yl)methanone]",≤ 0.5,–
"Cc1c(F)ccc2oc([C@H]3c4nc[nH]c4CCN3C(=O)c3ocnc3C(F)F)nc12 [Example 721, (R)-(4-(difluoromethyl)oxazol-5-yl)(4-(5-fluoro-4-methylbenzo[d]oxazol-2-yl)-6,7-dihydro-1H-imidazo[4,5-c]pyridin-5(4H)-yl)methanone]",1 to 5,–
"COc1cc(F)c2oc([C@H]3c4nc[nH]c4CCN3C(=O)c3oc(C(C)(C)O)nc3C(F)F)nc2c1 [Example 644, (R)-(4-(difluoromethyl)-2-(2-hydroxypropan-2-yl)oxazol-5-yl)(4-(7-fluoro-5-methoxybenzo[d]oxazol-2-yl)-6,7-dihydro-1H-imidazo[4,5-c]pyridin-5(4H)-yl)methanone]",≤ 0.5,–
"Cc1nc(-c2ccccn2)oc1C(=O)N1CCc2[nH]cnc2[C@H]1c1nc2cc(F)ccc2o1 [Example 31, (S)-(4-(5-fluorobenzo[d]oxazol-2-yl)-6,7-dihydro-1H-imidazo[4,5-c]pyridin-5(4H)-yl)(4-methyl-2-(pyridin-2-yl)oxazol-5-yl)methanone]",0.5 to 1,–
Cc1ccc2oc(C3c4nc[nH]c4CCN3C(=O)c3nnc(C)o3)nc2c1 (stereo not shown),–,1 to 5
"COc1cccc2oc([C@H]3c4nc[nH]c4CCN3C(=O)c3nnc(-c4ccn(C)n4)o3)nc12 [Example 640, (R)-(4-(4-methoxybenzo[d]oxazol-2-yl)-6,7-dihydro-1H-imidazo[4,5-c]pyridin-5(4H)-yl)(5-(1-methyl-1H-pyrazol-3-yl)-1,3,4-oxadiazol-2-yl)methanone]",1 to 5,–
"O=C(c1ocnc1CC(F)F)N1CCc2[nH]cnc2[C@@H]1c1nc2ccccc2o1 [Example 874, (R)-(4-(benzo[d]oxazol-2-yl)-6,7-dihydro-1H-imidazo[4,5-c]pyridin-5(4H)-yl)(4-(2,2-difluoroethyl)oxazol-5-yl)methanone]",0.5 to 1,–
"COc1cccc2nc([C@H]3c4nc[nH]c4CCN3C(=O)c3nc(C(F)(F)F)nn3C)oc12 [Example 698, (R)-(4-(7-methoxybenzo[d]oxazol-2-yl)-6,7-dihydro-1H-imidazo[4,5-c]pyridin-5(4H)-yl)(1-methyl-3-(trifluoromethyl)-1H-1,2,4-triazol-5-yl)methanone]",1 to 5,–
COC(=O)N1CC(C(=O)N2CCc3[nH]cnc3C2c2nc3cc(F)ccc3o2)C1 (stereo not shown),–,1 to 5
Fc1ccc2oc(C3c4nc[nH]c4CCN3Cc3cnco3)nc2c1 (stereo not shown),–,≥ 5
COCCCc1ccc2c(C(=O)N3CCc4[nH]cnc4C3c3nc4cc(F)ccc4o3)cnn2c1 (stereo not shown),–,1 to 5
CC(C)(O)c1cc(C(=O)N2CCc3[nH]cnc3C2c2nc3c(F)cccc3o2)no1 (stereo not shown),–,≥ 5
CC(C)(O)c1nc(Br)c(C(=O)N2CCc3[nH]cnc3C2c2nc3cc(F)ccc3o2)s1 (stereo not shown),–,1 to 5
COc1cccc2nc(C3c4nc[nH]c4CCN3C(=O)c3nc(C(C)(C)C)nn3C)oc12 (stereo not shown),–,1 to 5

SMILES,AC50 (A375 R408W cells) [µM],AC50 [1] [µM]
"Cn1ccc(-c2nc(C(F)F)c(C(=O)N3CCc4[nH]cnc4[C@@H]3c3nc4ccccc4o3)o2)n1 [Example 762, (R)-(4-(benzo[d]oxazol-2-yl)-6,7-dihydro-1H-imidazo[4,5-c]pyridin-5(4H)-yl)(4-(difluoromethyl)-2-(1-methyl-1H-pyrazol-3-yl)oxazol-5-yl)methanone]",1 to 5,–
O=C(CCc1ncco1)N1CCc2[nH]cnc2C1c1nc2cc(F)ccc2o1 (stereo not shown),–,1 to 5
"Cc1cccc2oc([C@H]3c4nc[nH]c4CCN3C(=O)c3cnco3)nc12 [Example 510, (R)-(4-(4-methylbenzo[d]oxazol-2-yl)-6,7-dihydro-1H-imidazo[4,5-c]pyridin-5(4H)-yl)(oxazol-5-yl)methanone]",1 to 5,–
Cc1nnc(C(=O)N2CCc3[nH]cnc3C2c2nc3c(F)ccc(F)c3o2)o1 (stereo not shown),–,1 to 5
"O=C(c1ccnn1CC(F)F)N1CCc2[nH]cnc2[C@@H]1c1nc2ccccc2o1 [Example 836, (R)-(4-(benzo[d]oxazol-2-yl)-6,7-dihydro-1H-imidazo[4,5-c]pyridin-5(4H)-yl)(1-(2,2-difluoroethyl)-1H-pyrazol-5-yl)methanone]",0.5 to 1,–
O=C(Cc1cnco1)N1CCc2[nH]cnc2C1c1nc2cc(F)ccc2o1 (stereo not shown),–,1 to 5
"Cc1nc(C(=O)N2CCc3[nH]cnc3[C@@H]2c2nc3cccc(F)c3o2)n(C)n1 [Example 496, (R)-(1,3-dimethyl-1H-1,2,4-triazol-5-yl)(4-(7-fluorobenzo[d]oxazol-2-yl)-6,7-dihydro-1H-imidazo[4,5-c]pyridin-5(4H)-yl)methanone]",1 to 5,–
"CC(C)(C#N)c1nc(C(F)F)c(C(=O)N2CCc3[nH]cnc3[C@H]2c2nc3cc(F)ccc3o2)o1 [Example 159, (S)-2-(4-(difluoromethyl)-5-(4-(5-fluorobenzo[d]oxazol-2-yl)-4,5,6,7-tetrahydro-1H-imidazo[4,5-c]pyridine-5-carbonyl)oxazol-2-yl)-2-methylpropanenitrile]",≤ 0.5,–
"CC(C)(O)c1nc(C(F)F)c(C(=O)N2CCc3[nH]cnc3[C@@H]2c2nc3cccc(C(F)(F)F)c3o2)o1 [Example 454, (R)-(4-(difluoromethyl)-2-(2-hydroxypropan-2-yl)oxazol-5-yl)(4-(7-(trifluoromethyl)benzo[d]oxazol-2-yl)-6,7-dihydro-1H-imidazo[4,5-c]pyridin-5(4H)-yl)methanone]",1 to 5,–
O=C(c1cnco1)N1CCc2[nH]cnc2C1c1nc2cc(F)ccc2o1 (stereo not shown),–,≥ 5
"O=C(c1oc(-c2ccccn2)nc1C(F)F)N1CCc2[nH]cnc2[C@H]1c1nc2cc(F)ccc2o1 [Example 85, (S)-(4-(difluoromethyl)-2-(pyridin-2-yl)oxazol-5-yl)(4-(5-fluorobenzo[d]oxazol-2-yl)-6,7-dihydro-1H-imidazo[4,5-c]pyridin-5(4H)-yl)methanone]",≤ 0.5,–
"Cc1ncoc1C(=O)N1CCc2[nH]cnc2[C@@H]1c1nc2ccc(F)cc2o1 [Example 598, (R)-(4-(6-fluorobenzo[d]oxazol-2-yl)-6,7-dihydro-1H-imidazo[4,5-c]pyridin-5(4H)-yl)(4-methyloxazol-5-yl)methanone]",1 to 5,–
"O=C(c1oc(-c2cccnc2)nc1C(F)F)N1CCc2[nH]cnc2[C@H]1c1nc2cccc(F)c2o1 [Example 590, (S)-(4-(difluoromethyl)-2-(pyridin-3-yl)oxazol-5-yl)(4-(7-fluorobenzo[d]oxazol-2-yl)-6,7-dihydro-1H-imidazo[4,5-c]pyridin-5(4H)-yl)methanone]",≤ 0.5,–
"O=C(c1ccnn1C(F)F)N1CCc2[nH]cnc2[C@@H]1c1nc2ccc(F)c(F)c2o1 [Example 514, (R)-(4-(6,7-difluorobenzo[d]oxazol-2-yl)-6,7-dihydro-1H-imidazo[4,5-c]pyridin-5(4H)-yl)(1-(difluoromethyl)-1H-pyrazol-5-yl)methanone]",1 to 5,–
"O=C(c1nnc(-c2ccn(C(F)F)n2)o1)N1CCc2[nH]cnc2[C@@H]1c1nc2cccc(C(F)(F)F)c2o1 [Example 853, (R)-(5-(1-(difluoromethyl)-1H-pyrazol-3-yl)-1,3,4-oxadiazol-2-yl)(4-(7-(trifluoromethyl)benzo[d]oxazol-2-yl)-6,7-dihydro-1H-imidazo[4,5-c]pyridin-5(4H)-yl)methanone]",0.5 to 1,–
"CC(C)(O)c1nc(C(F)F)c(C(=O)N2CCc3[nH]cnc3[C@@H]2c2nc3c(F)cccc3o2)o1 [Example 200, (R)-(4-(difluoromethyl)-2-(2-hydroxypropan-2-yl)oxazol-5-yl)(4-(4-fluorobenzo[d]oxazol-2-yl)-6,7-dihydro-1H-imidazo[4,5-c]pyridin-5(4H)-yl)methanone]",1 to 5,–
N#Cc1ncoc1C(=O)N1CCc2[nH]cnc2C1c1nc2cc(F)ccc2o1 (stereo not shown),–,≥ 5
